Consider five compounds from article doi:10.1101/2024.08.19.608619, “Discovery of potent SARS-CoV-2 nsp3 macrodomain inhibitors uncovers lack of translation to cellular antiviral response” (bioRxiv, 2024).

Holding throughout (assay): biochemical
Holding throughout (set-up): In vitro kinase panel profiling, per cent remaining kinase activity at 10 uM

One assay deals with T1, p70S6K(h) (Homo sapiens, UniProt P23443).
T1 construct: gene RPS6KB1
To be noted: atp_concentration=15, read-out: % of control remaining. The source says: (§1) We derisk potential for off-target activity by profiling the compound in a CEREP panel, a standard secondary pharmacology assessment, as well as a kinase panel to derisk a potential hinge-binding motif in our leads, and a PARP panel to derisk activity against human […]. Reassuringly, the compounds are selective, with the only off-targets being moderate human CHRM2 and KOR receptors activity associated with ASAP-0011198.

Another assay deals with T2, TAK1(h) (Homo sapiens, UniProt O43318).
T2 construct: gene MAP3K7
T2 sequence (O43318 1-606): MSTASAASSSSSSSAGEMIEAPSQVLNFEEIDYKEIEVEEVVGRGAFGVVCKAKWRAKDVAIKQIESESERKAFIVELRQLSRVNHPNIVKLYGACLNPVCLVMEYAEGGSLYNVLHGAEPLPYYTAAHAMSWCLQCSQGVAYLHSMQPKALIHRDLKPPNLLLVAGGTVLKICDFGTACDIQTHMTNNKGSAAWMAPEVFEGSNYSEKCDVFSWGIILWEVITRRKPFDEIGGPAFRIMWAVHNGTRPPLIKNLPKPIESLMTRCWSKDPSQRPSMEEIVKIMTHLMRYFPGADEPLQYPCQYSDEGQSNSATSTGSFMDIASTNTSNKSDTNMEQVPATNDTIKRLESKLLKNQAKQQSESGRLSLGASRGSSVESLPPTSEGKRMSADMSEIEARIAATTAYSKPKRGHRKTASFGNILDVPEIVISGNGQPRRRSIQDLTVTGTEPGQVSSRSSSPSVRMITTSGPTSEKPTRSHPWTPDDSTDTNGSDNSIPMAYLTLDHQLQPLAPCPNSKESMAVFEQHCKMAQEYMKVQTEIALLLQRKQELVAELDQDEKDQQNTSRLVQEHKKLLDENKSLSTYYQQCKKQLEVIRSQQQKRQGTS
To be noted: atp_concentration=45, read-out: % of control remaining.
Excerpt: as §1

For a further assay, the target named is mTOR(h) (Homo sapiens, UniProt P42345). The following applies: atp_concentration=70, read-out: % of control remaining.
Excerpt: as §1

For the next assay, the target named is EGFR(h) (Homo sapiens, UniProt P00533). The following applies: atp_concentration=10, read-out: % of control remaining.
Excerpt: as §1

For the next assay, the target named is T3, CHK1(h) (Homo sapiens, UniProt O14757).
T3 construct: gene CHEK1
T3 sequence (O14757 1-476): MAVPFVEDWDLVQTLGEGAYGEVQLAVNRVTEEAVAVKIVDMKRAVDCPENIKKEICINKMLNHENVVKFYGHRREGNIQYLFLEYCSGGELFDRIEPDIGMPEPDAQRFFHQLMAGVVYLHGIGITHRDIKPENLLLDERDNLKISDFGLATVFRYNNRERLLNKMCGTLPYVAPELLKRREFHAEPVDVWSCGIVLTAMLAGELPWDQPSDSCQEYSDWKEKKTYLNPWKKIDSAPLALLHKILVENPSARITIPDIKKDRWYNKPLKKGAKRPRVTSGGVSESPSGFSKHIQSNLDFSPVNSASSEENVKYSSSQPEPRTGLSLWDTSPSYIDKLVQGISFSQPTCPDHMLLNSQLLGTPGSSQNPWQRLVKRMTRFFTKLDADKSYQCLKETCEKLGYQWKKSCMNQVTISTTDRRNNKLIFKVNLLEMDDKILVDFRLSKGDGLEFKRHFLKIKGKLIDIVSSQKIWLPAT
The following applies: atp_concentration=90, read-out: % of control remaining.
Excerpt: as §1

The next assay addresses T4, Rse(h) (Homo sapiens, UniProt Q06418).
T4 construct: gene TYRO3
T4 sequence (Q06418 1-890): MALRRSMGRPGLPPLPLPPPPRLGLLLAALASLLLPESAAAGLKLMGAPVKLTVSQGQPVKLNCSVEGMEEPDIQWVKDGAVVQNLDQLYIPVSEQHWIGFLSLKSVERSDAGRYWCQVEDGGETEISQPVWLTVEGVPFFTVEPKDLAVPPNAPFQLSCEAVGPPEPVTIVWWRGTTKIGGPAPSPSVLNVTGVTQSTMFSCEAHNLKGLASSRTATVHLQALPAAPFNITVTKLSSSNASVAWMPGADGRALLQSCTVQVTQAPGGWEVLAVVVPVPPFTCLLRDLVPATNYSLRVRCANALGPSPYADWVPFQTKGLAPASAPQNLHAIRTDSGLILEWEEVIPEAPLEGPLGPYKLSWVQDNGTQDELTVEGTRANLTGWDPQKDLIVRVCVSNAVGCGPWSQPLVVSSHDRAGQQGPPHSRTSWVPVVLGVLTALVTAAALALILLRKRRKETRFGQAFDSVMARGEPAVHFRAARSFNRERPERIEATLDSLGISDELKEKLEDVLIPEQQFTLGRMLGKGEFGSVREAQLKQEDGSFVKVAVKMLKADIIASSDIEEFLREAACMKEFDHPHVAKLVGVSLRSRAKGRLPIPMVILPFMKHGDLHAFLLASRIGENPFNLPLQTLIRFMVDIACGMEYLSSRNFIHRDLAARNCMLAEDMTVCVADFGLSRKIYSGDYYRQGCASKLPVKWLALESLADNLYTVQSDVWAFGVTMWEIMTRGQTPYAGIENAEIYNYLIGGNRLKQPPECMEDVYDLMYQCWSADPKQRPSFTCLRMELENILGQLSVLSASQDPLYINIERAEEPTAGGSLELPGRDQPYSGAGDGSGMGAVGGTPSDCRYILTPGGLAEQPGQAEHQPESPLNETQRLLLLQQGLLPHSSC
The following applies: atp_concentration=45, read-out: % of control remaining.
Excerpt: as §1

Assay [1] has as its target T5, PI3 Kinase (p110δ/p85α)(h) (Homo sapiens, UniProt O00329).
T5 construct: gene PIK3CD
To be noted: atp_concentration=200, read-out: % of control remaining.
Excerpt: as §1

Read-outs that look alike come from different tables or passages of the source.

EGFR(h), sequence (P00533 whole entry): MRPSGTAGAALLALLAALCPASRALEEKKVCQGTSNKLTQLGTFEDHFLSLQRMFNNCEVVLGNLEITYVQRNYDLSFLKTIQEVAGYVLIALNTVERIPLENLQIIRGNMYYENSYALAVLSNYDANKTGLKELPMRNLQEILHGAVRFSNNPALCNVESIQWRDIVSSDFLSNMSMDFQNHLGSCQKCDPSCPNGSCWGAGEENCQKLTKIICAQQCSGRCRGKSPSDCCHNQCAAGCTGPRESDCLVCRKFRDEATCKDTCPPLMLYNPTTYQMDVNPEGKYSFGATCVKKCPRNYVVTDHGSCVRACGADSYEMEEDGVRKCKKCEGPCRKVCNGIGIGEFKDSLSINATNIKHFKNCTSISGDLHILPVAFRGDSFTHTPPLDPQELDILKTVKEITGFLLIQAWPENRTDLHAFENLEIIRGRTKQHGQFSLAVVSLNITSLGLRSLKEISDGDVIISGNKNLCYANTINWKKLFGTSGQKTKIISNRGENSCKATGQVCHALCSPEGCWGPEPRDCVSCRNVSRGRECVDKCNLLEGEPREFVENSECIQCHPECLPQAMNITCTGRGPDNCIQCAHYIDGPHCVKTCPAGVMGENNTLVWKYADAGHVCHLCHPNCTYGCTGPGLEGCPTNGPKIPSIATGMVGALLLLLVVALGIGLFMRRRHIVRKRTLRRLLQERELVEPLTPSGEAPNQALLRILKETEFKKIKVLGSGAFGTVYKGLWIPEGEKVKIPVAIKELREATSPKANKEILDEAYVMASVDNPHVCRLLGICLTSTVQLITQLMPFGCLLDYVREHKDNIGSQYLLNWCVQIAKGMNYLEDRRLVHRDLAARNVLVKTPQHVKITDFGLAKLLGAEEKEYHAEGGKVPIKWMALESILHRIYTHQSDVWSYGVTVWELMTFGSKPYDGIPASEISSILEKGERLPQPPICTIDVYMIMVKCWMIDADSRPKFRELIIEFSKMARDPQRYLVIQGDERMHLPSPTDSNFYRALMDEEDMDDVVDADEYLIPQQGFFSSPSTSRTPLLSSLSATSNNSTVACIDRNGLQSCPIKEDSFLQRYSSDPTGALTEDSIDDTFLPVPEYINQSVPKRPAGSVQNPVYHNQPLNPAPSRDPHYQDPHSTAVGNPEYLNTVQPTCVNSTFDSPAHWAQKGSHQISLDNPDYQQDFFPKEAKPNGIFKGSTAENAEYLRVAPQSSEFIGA
T5 sequence (O00329 whole entry): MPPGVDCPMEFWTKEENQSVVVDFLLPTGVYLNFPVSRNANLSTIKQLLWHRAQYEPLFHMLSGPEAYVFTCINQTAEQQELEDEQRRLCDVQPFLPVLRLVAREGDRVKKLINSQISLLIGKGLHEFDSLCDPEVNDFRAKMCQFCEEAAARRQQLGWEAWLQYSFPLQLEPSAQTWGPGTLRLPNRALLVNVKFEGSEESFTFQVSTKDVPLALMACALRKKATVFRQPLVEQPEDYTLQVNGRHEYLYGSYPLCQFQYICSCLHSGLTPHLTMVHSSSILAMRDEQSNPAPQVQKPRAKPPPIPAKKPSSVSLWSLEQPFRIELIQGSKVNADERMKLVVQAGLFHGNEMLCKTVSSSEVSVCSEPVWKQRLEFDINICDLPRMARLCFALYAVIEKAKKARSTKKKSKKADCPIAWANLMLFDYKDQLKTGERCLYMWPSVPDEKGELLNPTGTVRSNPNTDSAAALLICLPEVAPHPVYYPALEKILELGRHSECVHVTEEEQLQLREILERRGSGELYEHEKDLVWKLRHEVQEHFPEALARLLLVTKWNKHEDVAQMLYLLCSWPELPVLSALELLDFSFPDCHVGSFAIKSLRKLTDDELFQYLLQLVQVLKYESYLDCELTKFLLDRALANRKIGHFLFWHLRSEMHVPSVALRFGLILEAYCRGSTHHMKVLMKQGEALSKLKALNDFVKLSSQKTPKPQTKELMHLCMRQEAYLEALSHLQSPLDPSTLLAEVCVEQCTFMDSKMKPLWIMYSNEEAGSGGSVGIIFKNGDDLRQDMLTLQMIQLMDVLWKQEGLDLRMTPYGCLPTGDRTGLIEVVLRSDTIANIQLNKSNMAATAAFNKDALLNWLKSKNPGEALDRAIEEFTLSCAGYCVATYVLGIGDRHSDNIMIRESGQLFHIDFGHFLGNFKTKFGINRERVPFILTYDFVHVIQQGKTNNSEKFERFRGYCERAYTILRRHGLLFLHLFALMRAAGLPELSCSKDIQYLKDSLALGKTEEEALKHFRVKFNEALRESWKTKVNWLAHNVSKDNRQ
T5 sequence (P27986 whole entry partner): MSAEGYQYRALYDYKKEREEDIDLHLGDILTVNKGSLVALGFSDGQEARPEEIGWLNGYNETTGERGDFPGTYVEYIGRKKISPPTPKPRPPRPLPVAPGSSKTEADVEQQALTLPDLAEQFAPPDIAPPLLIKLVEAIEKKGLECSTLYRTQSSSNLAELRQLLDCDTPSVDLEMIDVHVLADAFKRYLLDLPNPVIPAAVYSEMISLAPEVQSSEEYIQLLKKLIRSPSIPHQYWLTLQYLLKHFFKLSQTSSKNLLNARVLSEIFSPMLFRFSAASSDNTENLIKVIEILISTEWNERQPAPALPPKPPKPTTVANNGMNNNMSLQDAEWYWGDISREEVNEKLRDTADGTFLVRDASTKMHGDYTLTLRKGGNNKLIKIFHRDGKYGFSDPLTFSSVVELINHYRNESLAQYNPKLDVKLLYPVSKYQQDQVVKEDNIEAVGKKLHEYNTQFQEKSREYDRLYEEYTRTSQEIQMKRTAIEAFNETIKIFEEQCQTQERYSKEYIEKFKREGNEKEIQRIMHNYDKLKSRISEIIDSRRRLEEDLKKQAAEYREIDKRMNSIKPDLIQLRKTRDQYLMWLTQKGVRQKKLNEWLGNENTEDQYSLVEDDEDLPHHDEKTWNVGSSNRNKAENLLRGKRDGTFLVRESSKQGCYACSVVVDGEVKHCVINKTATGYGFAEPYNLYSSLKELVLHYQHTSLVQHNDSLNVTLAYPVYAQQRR
T1 sequence (P23443 whole entry): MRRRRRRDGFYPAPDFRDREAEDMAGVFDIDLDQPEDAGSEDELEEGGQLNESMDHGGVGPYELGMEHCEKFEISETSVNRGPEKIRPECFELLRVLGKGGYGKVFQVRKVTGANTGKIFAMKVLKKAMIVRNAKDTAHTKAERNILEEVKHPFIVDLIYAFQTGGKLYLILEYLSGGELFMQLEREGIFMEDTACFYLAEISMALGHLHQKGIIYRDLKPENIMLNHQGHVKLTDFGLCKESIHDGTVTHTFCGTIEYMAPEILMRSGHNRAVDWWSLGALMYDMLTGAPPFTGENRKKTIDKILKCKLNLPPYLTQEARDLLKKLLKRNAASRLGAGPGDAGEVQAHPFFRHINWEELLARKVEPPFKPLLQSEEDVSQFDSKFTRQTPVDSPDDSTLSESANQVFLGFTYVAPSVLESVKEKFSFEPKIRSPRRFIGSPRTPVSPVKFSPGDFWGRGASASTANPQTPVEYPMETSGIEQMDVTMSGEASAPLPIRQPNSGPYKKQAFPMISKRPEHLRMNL

On to `CC(C)C(Nc1ncnc2[nH]c(C(=O)NC3CCN(C)C3)cc12)c1ccc2c(c1)S(=O)(=O)CCC2` (centres unmarked) [ASAP-0011198], for which the remaining activity at 10 µM was 104% at p70S6K(h) (batch_name=ASAP-0011198-002); 100% at TAK1(h) (batch_name=ASAP-0011198-002); 103% at mTOR(h) (batch_name=ASAP-0011198-002); 102% at EGFR(h) (batch_name=ASAP-0011198-002); 118% on CHK1(h) (batch_name=ASAP-0011198-002); 107% on Rse(h) (batch_name=ASAP-0011198-002). Moreover, the remaining activity at 10 µM in assay [1] (batch_name=ASAP-0011198-002) is 99%.
`Cn1ncc(-c2cc3c(N[C@@H](c4ccc5c(n4)OCCO5)C(C)(C)C)ncnc3[nH]2)c1C#N` [ASAP-0011221]: the remaining activity at 10 µM on p70S6K(h) (batch_name=ASAP-0011221-002) came to 108%; at TAK1(h) (batch_name=ASAP-0011221-002), 95%; at mTOR(h) (batch_name=ASAP-0011221-002), 105%; on EGFR(h) (batch_name=ASAP-0011221-002) it was 99%; at CHK1(h) (batch_name=ASAP-0011221-002), 125%; at Rse(h) (batch_name=ASAP-0011221-002) it was 110%. Also, in assay [1] (batch_name=ASAP-0011221-002), the remaining activity at 10 µM amounted to 73%.
In the case of `Cc1nn(C)cc1-c1cc2c(NC(c3ccc4c(c3)S(=O)(=O)CCC4)C(C)C)ncnc2[nH]1` (centres unmarked) [ASAP-0011446], the remaining activity at 10 µM at p70S6K(h) (batch_name=ASAP-0011446-002) was found to be 108%; at TAK1(h) (batch_name=ASAP-0011446-002), 100%; at mTOR(h) (batch_name=ASAP-0011446-002) it was 96%; on EGFR(h) (batch_name=ASAP-0011446-002), 87%; on CHK1(h) (batch_name=ASAP-0011446-002), 102%; on Rse(h) (batch_name=ASAP-0011446-002) it was 96%. Moreover, the remaining activity at 10 µM in assay [1] (batch_name=ASAP-0011446-002) turned out to be 101%.
In the case of `C[C@H](C(=O)O)[C@@H](NC(=O)c1ncnc2[nH]ccc12)c1ccc(Br)cc1` [ASAP-0014722], the remaining activity at 10 µM on p70S6K(h) (batch_name=ASAP-0014722-002) was found to be 97%; at TAK1(h) (batch_name=ASAP-0014722-002) it was 95%; at mTOR(h) (batch_name=ASAP-0014722-002) it was 100%; at EGFR(h) (batch_name=ASAP-0014722-002), 93%; at CHK1(h) (batch_name=ASAP-0014722-002), 99%; at Rse(h) (batch_name=ASAP-0014722-002), 87%. The remaining activity at 10 µM in assay [1] (batch_name=ASAP-0014722-002) is 97%.
On to `COc1ccc([C@H](Cc2nnn[nH]2)NC(=O)c2ncnc3[nH]ccc23)cc1` [ASAP-0015381], for which the remaining activity at 10 µM on p70S6K(h) (batch_name=ASAP-0015381-001) came to 113%; at TAK1(h) (batch_name=ASAP-0015381-001) it was 99%; on mTOR(h) (batch_name=ASAP-0015381-001) it was 97%; on EGFR(h) (batch_name=ASAP-0015381-001), 97%; on CHK1(h) (batch_name=ASAP-0015381-001), 110%; on Rse(h) (batch_name=ASAP-0015381-001), 100%. Further, the remaining activity at 10 µM in assay [1] (batch_name=ASAP-0015381-001) came to 97%.
